In patent US5637583A, “Aminocyclohexylesters and uses thereof” (University of British Columbia, priority 1994, dated 1997):
Where a name gives a salt, the structure may show the parent alone. Read-outs that look alike come from different tables or passages of the source.

Legend:
[1] = system: conscious rats subject to coronary artery occlusion; experiment: Antiarrhythmic efficacy: incidence of cardiac arrhythmias in conscious rats subject to coronary artery occlusion; format: in vivo, rat; conditions: score 0-9 per Table 2, 30 min after occlusion
Experimental: Antiarrhythmic efficacy was assessed by investigating the effect of a compound on the incidence of cardiac arrhythmias in conscious rats subject to coronary artery occlusion. Rats weighing 200-300 gms were subjected to preparative surgery and assigned to groups in a random block design. In each case, the animal was anesthetized with halothane during surgical preparation. The left femoral artery was cannulated for measurement of mean arterial blood pressure and withdrawal of blood samples. The left femoral vein was also cannulated for injection of drugs. The thoracic cavity was opened and a polyethylene occluder loosely placed around the left anterior descending coronary artery. The thoracic cavity was then closed. ECG was recorded by insertion of electrodes placed along the anatomical axis of the heart. All cannulae and electrode leads were exteriorized in the mid scapular region. In random and double-blind manner, about 0.5 to 2 hours post-surgery, an infusion of vehicle, or the compound to be tested was given. After 15 minutes infusion, the occluder was pulled so as to produce coronary artery occlusion. ECG, arrhythmias, blood pressure, heart rate and mortality were monitored for 30 minutes after occlusion. Arrhythmias were recorded as ventricular tachycardia (VT) and ventricular fibrillation (VF) and scored according to Curtis, M. J. and Walker, M. J. A., Cardiovasc.
VPB=ventricular premature beats
VT=ventricular tachycardia
VF=ventricular fibrillation
Occlusion is associated with increases in R-wave height and "S-T" segment elevation; and an occluded zone (measured after death by cardiogreen dye perfusion) in the range of 25%-50% of total left-ventricular weight.

cardiac sodium channel [2] = target: T1, cardiac sodium channel (Rattus norvegicus, UniProt P15389); experiment: Electrical stimulation of left ventricle in rats (iT, VFT; cardiac sodium channel blockade); format: in vivo; conditions: infusion rate for 25% increase from control; anesthetized rats
Experimental: Rats were prepared according to the preceding procedure. Two silver stimulating electrodes were inserted through the chest wall and implanted in the left ventricle. Square wave stimulation was used to determine threshold current for capture, ventricular fibrillation threshold current, and effective refractory period (Howard, P. G. and Walker, M. J. A., Proc. West. Pharmacol. Soc. 33:123-127 (1990)). Table 5 contains ED25 values for these indices of cardiac sodium channel blockade, where the ED25 is the infusion rate in micromoles/kg/minute of compound required to elicit a 25% increase from control. The increases in refractoriness indicate ancillary blockade of potassium channels. The threshold current for capture is represented by "iT". The fibrillation threshold current is represented by "VFT". The effective refracting period is represented by "ERP".

cardiac sodium channel [3] = target: T1, cardiac sodium channel; experiment: ECG parameters in anesthetized rats (RSh, PR, QRS; cardiac sodium channel blockade); format: in vivo; conditions: i.v. bolus; for ED25 PR (dose required to produce a 25% increase): P-R interval; for ED25 QRS (dose required to produce a 25% increase): QRS interval
Experimental: Rats weighing 200-250 gms were used in this example. Animals were anesthetized with 60 mg/kg pentobarbitone i.p. The carotid artery and jugular vein were cannulated for measurement of blood pressure and drug injection, respectively. ECG was recorded by insertion of electrodes placed along the anatomical axis of the heart. All compounds were given as bolus injections.
Various ECG parameters were measured. The most sensitive of these for measuring sodium channel blockade is RSh (J. Pharmacology Methods 27:51-58 (1992)). Table 4 describes the results of the tests as ED25 (micromoles/kg) which are the doses required to produce a 25% increase in the parameter measured (ne=not estimated). The increases in P-R interval, QRS interval and RSh indicate cardiac sodium channel blockade while the increase in Q-T interval indicates ancillary cardiac potassium channel blockade which is the property of a type 1 a antiarrhythmic.

potassium channels = experiment: Electrical stimulation of left ventricle in rats (ERP; ancillary blockade of potassium channels); format: in vivo, rat; conditions: infusion rate for 25% increase from control; anesthetized rats
Description: Two silver stimulating electrodes were inserted through the chest wall and implanted in the left ventricle. Square wave stimulation was used to determine threshold current for capture, ventricular fibrillation threshold current, and effective refractory period (Howard, P. G. and Walker, M. J. A., Proc. West. Pharmacol. Soc. 33:123-127 (1990)). […] The threshold current for capture is represented by "iT". The fibrillation threshold current is represented by "VFT". The effective refracting period is represented by "ERP".

[4] = system: cardiac potassium channel; experiment: ECG parameters in anesthetized rats (QT; ancillary cardiac potassium channel blockade); format: in vivo, rat; conditions: i.v. bolus, Q-T interval
Experimental: Various ECG parameters were measured. […] The increases in P-R interval, QRS interval and RSh indicate cardiac sodium channel blockade while the increase in Q-T interval indicates ancillary cardiac potassium channel blockade which is the property of a type 1 a antiarrhythmic.

cardiac sodium channel [5] = target: T1, cardiac sodium channel; experiment: Whole cell voltage clamp tests, single isolated adult rat cardiac cells; format: cell-based
Experimental: In order to directly measure cardiac sodium channel blockade, standard whole cell voltage clamp tests were carried out using single isolated adult rat cardiac cells. Results in the form of EC50 values, which are micromolar concentrations required to produce a 50% reduction in sodium current, are presented in Table 6.

[6] = system: hypogastric nerve vas deferens; experiment: Nerve conduction blockade in vitro, hypogastric nerve vas deferens; conditions: read-out: concentration at which the twitch response from electrical stimulation is reduced to 50% of control value
Experimental: In order to establish the potency of the compounds to block nerve conduction, two in vitro assays were used. The first was the phrenic nerve diaphragm of the rat. The second was the hypogastric nerve vas deferens. Nerve blockade in these preparations is indicative of local anesthetic activity. Compounds were administered to the bath solution in increasing concentrations while the preparations were being stimulated with regular electrical impulses.

phrenic nerve diaphragm = experiment: Nerve conduction blockade in vitro, phrenic nerve diaphragm; conditions: Rattus norvegicus, read-out: concentration at which the twitch response from electrical stimulation is reduced to 50% of control value
Experimental: In order to establish the potency of the compounds to block nerve conduction, two in vitro assays were used. The first was the phrenic nerve diaphragm of the rat. […] Nerve blockade in these preparations is indicative of local anesthetic activity. Compounds were administered to the bath solution in increasing concentrations while the preparations were being stimulated with regular electrical impulses.

[7] = dose 8 micromoles/kg/min infusion
[8] = whole cell voltage clamp, isolated adult rat cardiac cells, read-out: EC50 (concentration required to produce a 50% reduction in sodium current)
[9] = dose 4 micromoles/kg/min infusion

T1 sequence (P15389 whole entry, the tested form may be a part): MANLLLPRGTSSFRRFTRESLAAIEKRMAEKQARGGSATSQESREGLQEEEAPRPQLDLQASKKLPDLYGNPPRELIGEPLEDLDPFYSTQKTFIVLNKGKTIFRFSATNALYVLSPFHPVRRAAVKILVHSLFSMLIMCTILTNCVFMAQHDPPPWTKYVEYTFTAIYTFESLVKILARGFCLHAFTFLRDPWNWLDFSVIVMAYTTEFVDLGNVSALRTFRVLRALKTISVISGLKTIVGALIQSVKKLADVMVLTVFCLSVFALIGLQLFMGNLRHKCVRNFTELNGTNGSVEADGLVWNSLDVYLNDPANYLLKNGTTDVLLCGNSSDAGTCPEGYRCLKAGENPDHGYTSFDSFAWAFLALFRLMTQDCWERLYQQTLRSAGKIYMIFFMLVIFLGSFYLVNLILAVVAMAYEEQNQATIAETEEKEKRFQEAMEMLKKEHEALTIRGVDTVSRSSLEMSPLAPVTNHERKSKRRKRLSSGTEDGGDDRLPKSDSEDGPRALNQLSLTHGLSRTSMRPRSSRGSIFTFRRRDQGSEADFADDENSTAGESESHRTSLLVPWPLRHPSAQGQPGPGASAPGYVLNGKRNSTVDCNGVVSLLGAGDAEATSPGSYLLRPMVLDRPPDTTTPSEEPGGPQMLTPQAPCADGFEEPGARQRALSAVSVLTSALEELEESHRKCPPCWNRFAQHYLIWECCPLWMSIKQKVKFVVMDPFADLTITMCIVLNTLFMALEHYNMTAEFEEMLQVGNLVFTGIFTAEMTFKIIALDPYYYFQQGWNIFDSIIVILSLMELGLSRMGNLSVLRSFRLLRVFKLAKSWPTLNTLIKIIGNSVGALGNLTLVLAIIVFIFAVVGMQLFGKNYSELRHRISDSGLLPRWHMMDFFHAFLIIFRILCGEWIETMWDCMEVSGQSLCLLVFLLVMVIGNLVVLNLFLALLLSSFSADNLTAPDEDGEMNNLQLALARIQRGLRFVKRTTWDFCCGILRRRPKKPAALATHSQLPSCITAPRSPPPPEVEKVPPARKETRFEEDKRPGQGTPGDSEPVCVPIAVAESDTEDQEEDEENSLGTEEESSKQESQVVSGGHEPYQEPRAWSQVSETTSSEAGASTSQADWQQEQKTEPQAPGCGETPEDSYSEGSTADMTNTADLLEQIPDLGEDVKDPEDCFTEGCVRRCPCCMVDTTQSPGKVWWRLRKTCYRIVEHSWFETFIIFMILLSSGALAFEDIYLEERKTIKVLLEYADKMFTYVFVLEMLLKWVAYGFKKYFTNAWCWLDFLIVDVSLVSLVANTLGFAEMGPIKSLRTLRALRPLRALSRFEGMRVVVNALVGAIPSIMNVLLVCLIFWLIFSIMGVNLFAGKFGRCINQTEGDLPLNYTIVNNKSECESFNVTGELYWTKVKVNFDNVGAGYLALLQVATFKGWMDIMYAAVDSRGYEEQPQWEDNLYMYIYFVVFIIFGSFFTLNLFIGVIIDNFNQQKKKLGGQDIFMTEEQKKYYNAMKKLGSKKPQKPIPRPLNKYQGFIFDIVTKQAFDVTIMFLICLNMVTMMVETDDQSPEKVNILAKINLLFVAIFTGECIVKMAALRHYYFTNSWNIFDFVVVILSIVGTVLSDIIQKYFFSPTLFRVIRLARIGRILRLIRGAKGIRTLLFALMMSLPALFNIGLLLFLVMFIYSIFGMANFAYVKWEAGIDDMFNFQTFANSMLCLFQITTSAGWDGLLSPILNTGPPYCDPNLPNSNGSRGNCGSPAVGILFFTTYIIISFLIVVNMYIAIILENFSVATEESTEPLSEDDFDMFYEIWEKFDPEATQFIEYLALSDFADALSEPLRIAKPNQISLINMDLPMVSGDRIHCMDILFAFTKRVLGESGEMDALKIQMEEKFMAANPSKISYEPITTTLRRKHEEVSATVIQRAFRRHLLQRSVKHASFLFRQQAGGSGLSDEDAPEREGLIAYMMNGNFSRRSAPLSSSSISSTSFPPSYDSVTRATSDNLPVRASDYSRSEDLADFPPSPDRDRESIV

Compound | AS (arrhythmia score) ([1]; dose 12 micromoles/kg/min infusion) | ED25 VFT (fibrillation threshold current) (cardiac sodium channel [2]) | ED25 iT (threshold current for capture) (cardiac sodium channel [2]) | ED25 PR (dose required to produce a 25% increase) (cardiac sodium channel [3]) | ED25 QRS (dose required to produce a 25% increase) (cardiac sodium channel [3]) | ED25 RSh (dose required to produce a 25% increase) (cardiac sodium channel [3]) | ED25 ERP (effective refractory period) (potassium channels) | AS (arrhythmia score) [1, 7] | ED25 QT (dose required to produce a 25% increase) [4] | EC50 (cardiac sodium channel [5]; [8]) | EC50 (cardiac sodium channel [5]) | IC50 [6] | IC50 (phrenic nerve diaphragm) | AS (arrhythmia score) ([1]; dose 20 micromoles/kg/min infusion) | IC50 ([6]; hypogastric nerve vas deferens, in vitro) | IC50 (phrenic nerve diaphragm; phrenic nerve diaphragm, in vitro) | AS (arrhythmia score) ([1]; dose 5 micromoles/kg/min infusion) | AS (arrhythmia score) [1, 9] | AS (arrhythmia score) ([1]; dose 2 micromoles/kg/min infusion) | AS (arrhythmia score) ([1]; dose 10 micromoles/kg/min infusion)
Cl.O=C(O[C@@H]1CCCC[C@H]1N1CCOCC1)c1cccc2ccccc12 (racemic) [Compound #15, (±)-trans-[2-(4-morpholinyl)cyclohexyl]-1-naphthoate monohydrochloride] | 2 | 18 µmol/kg/min | 33 µmol/kg/min | 340 µmol/kg | 90 µmol/kg | 80 µmol/kg | 20 µmol/kg/min | – | – | – | – | – | – | – | – | – | – | – | – | –
Cl.O=C(Cc1cccc2sccc12)O[C@@H]1CCCC[C@H]1N1CCOCC1 (racemic) [Compound #16, (±)-trans-[2-(4-morpholinyl)cyclohexyl]benzo[b]thiophene-4-acetate monohydrochloride] | – | 2 µmol/kg/min | 15 µmol/kg/min | 230 µmol/kg | 690 µmol/kg | 23 µmol/kg | 5 µmol/kg/min | 0.3 | 33 µmol/kg | 225 µM | – | – | – | – | – | – | – | – | – | –
O=C(COc1ccc(Cl)c(Cl)c1)O[C@@H]1CCCC[C@H]1N1CCCC1 (relative stereo) [Compound #1, (±)-trans-[2-(1-pyrrolidinyl)cyclohexyl](3,4-dichlorophenoxy)acetate monohydrochloride] | – | 3 µmol/kg/min | 6 µmol/kg/min | 17 µmol/kg | – | 10 µmol/kg | 4 µmol/kg/min | – | 78 µmol/kg | – | 200 µM | 40 µM | 90 µM | – | – | – | – | – | – | –
O=C(COc1cccc2ccccc12)O[C@@H]1CCCC[C@H]1N1CCCC1 (relative stereo) [Compound #2, (±)-trans-[2-(1-pyrrolidinyl)cyclohexyl](1-naphthoxy)acetate monohydrochloride] | – | 2 µmol/kg/min | 5 µmol/kg/min | 23 µmol/kg | – | 11 µmol/kg | 3 µmol/kg/min | – | 53 µmol/kg | 50 µM | – | – | – | 4 | 25 µM | 120 µM | – | – | – | –
O=C(COc1ccc(Cl)c(Cl)c1)O[C@@H]1CCCC[C@H]1N1CC2CCC(CC2)C1 (relative stereo) [Compound #3, (±)-trans-{2-[N-(3-azabicyclo[3.2.2]nonyl)]cyclohexyl}(3,4-dichlorophenoxy)acetate monohydrochloride] | – | – | – | 140 µmol/kg | 130 µmol/kg | 140 µmol/kg | – | – | 160 µmol/kg | – | > 150 µM | 300 µM | 200 µM | – | – | – | – | – | – | –
O=C(COc1ccc(Cl)c(Cl)c1)O[C@@H]1CCCC[C@H]1N1CCOCC1 (relative stereo) [Compound #4, (±)-trans-[2-(4-morpholinyl)cyclohexyl](3,4-dichlorophenoxy)acetate monohydrochloride] | – | – | – | 44 µmol/kg | – | 10 µmol/kg | – | – | – | > 500 µM | – | – | – | – | – | – | 3.6 | – | – | –
O=C(COc1ccc(Cl)c(Cl)c1)O[C@@H]1CCCC[C@H]1N1CCCCCC1 (relative stereo) [Compound #5, (±)-trans-[2-(1-hexahydroazepinyl)cyclohexyl](3,4-dichlorophenoxy)acetate monohydrochloride] | – | 4 µmol/kg/min | 5 µmol/kg/min | 43 µmol/kg | 66 µmol/kg | 36 µmol/kg | 4 µmol/kg/min | – | 45 µmol/kg | – | – | 100 µM | 180 µM | – | – | – | – | 3 | – | –
O=C(CC1CCCCC1)O[C@@H]1CCCC[C@H]1N1CCCC1 (relative stereo) [Compound #7, (±)-trans-[2-(1-pyrrolidinyl)cyclohexyl](cyclohexyl)acetate monohydrochloride] | – | – | – | 84 µmol/kg | – | 6 µmol/kg | – | – | 41 µmol/kg | – | – | – | – | – | – | – | – | – | – | –
O=C(Cc1cccc2ccccc12)O[C@@H]1CCCC[C@H]1N1CCOCC1 (relative stereo) [Compound #8, (±)-trans-[2-(4-morpholinyl)cyclohexyl]naphthyl-1-acetate monohydrochloride] | – | 2 µmol/kg/min | 5 µmol/kg/min | 20 µmol/kg | 42 µmol/kg | 11 µmol/kg | 4 µmol/kg/min | – | 57 µmol/kg | 80 µM | – | – | – | – | – | – | – | – | 3 | –
O=C(Cc1ccc2ccccc2c1)O[C@@H]1CCCC[C@H]1N1CCOCC1 (relative stereo) [Compound #9, (±)-trans-[2-(4-morpholinyl)cyclohexyl]naphthyl-2-acetate monohydrochloride] | – | 7 µmol/kg/min | 34 µmol/kg/min | – | – | 13 µmol/kg | 8 µmol/kg/min | – | 20 µmol/kg | > 100 µM | – | – | – | – | – | – | – | 1.3 | – | –
O=C(Cc1ccccc1)O[C@@H]1CCCC[C@H]1N1CCOCC1 (relative stereo) [Compound #10, (±)-trans-[2-(4-morpholinyl)cyclohexyl]phenylacetate monohydrochloride] | – | 1 µmol/kg/min | 15 µmol/kg/min | – | – | 16 µmol/kg | 8 µmol/kg/min | – | 25 µmol/kg | – | > 300 µM | – | – | – | – | – | – | – | – | 2.2
O=C(Cc1ccc([N+](=O)[O-])cc1)O[C@@H]1CCCC[C@H]1N1CCOCC1 (relative stereo) [Compound #12, (+5-trans-[2-(4-morpholinyl)cyclohexyl](4-nitrophenyl)acetatemonohydrochloride] | – | 5 µmol/kg/min | 4 µmol/kg/min | 64 µmol/kg | 82 µmol/kg | 17 µmol/kg | 6 µmol/kg/min | 3 | 44 µmol/kg | > 300 µM | – | – | – | – | – | – | – | – | – | –
